Measurements from patent US20040132049A1, “Method for the detection of apoptosis” (priority 2002, published 2004).

What was measured:
[1] = test system: nucleolin in medium of U937 cells; assay: Immunoblot of nucleolin shed into serum-free culture medium; assay type: cell-based, Human
Protocol: The possibility that nucleolin was shed into the cell culture medium was examined by probing serum-free medium from cultures of U937 cells irradiated with UV light in the absence or presence of 3-ABA. Cell culture and treatment conditions were as in Example 2. To prepare protein from the cell culture medium, the medium was replaced with serum-free medium, and cells were irradiated. Cells were then centrifuged at 1,200 rpm for 10 minutes. Culture medium was collected from untreated and treated cells at 2 hours and 4 hours following irradiation. The medium was filtered (syringe filters with PVDF membranes, Whatman; Clifton, N.J.), and protein present in the medium was concentrated using Centricon (YM-30, Millipore, Bedford, Mass.) according the manufacturer's instructions.

U937 cells [2] = assay: MTT viable cell assay after UV irradiation; assay type: cell-based, Human; conditions: 1 mM 3-ABA pre-treatment, MTT 48 hours after irradiation
Protocol: Because PARP-1 is involved in both repair of DNA damage and induction of apoptosis, 3-ABA can both increase apoptotic cell death (by preventing repair) or decrease it (by preventing PARP-1 cleavage), depending on conditions. Therefore, the ability of 3-ABA to inhibit cell death under the conditions used here was examined. Cells were subjected to UV irradiation with or without 1 mM 3-ABA pre-treatment. Untreated and irradiated cells were plated at 2×10^4/ml in a 96-well plate. Viable cells were assessed using the MTT (3-[4,5-dimethylthiazol-2-yl]-2,5-diphenyl tetrazolium bromide) assay (Norgaard et al., 2001) 48 hours after irradiation.

[3] = test system: nucleolin and PARP-1 proteins in U937 cells; assay: Immunoblot of nucleolin and PARP-1 in S-100 and nuclear extracts after UV-induced apoptosis; assay type: cell-based, Human; conditions: UV-irradiated U937 cells, 30 minutes pre-incubation with 1 mM 3-ABA
Protocol: The concentration of extracted proteins was determined using the BioRad DC protein assay kit (BioRad; Hercules, Calif.). […] After 3 washes in PBST, the membrane was incubated with horseradish peroxidase-conjugated goat anti-mouse antibody (Santa Cruz Biotechnology) for 45 minutes at room temperature and then washed 3 times in PBST. Bound antibodies were detected using enhanced chemiluminescence detection. Equal gel loading and transfer of proteins were confirmed by staining membranes with India ink (Bates et al., 1999).
Some cells received 30 minutes pre-incubation with 1 mM 3-ABA before UV-irradiation.

[4] = test system: nucleolin and PARP-1 proteins in U937 cells; assay: Immunoblot of nucleolin and PARP-1 in S-100 and nuclear extracts after CPT-induced apoptosis; assay type: cell-based, Human
Protocol: Cells were harvested and washed twice with cold PBS. S-100 and nuclear extracts were prepared (Coqueret and Gascan, 2000). Briefly, 100 μl of ice-cold extraction buffer B (10 mM 4-(2-Hydroxyethyl)piperazine-1-ethanesulfonic acid (HEPES; pH 7.9), 1.5 mM MgCl2, 10 mM KCl, 1 mM phenylmethylsulfonyl fluoride (PMSF), 1 μg/ml leupeptin, 1 μg/ml aprotinin) were added to the cells. After three cycles of freeze-thaw, S-100 extracts were recovered as supernatant following centrifugation at 12,000 rpm for 1 minute, and pellets containing nuclei were resuspended in 40 μl of buffer C (20 mM HEPES, pH 7.9, 1.5 mM MgCl2, 420 mM KCl, 0.2 mM EDTA, 25% glycerol, 1 mM PMSF, 1 μg/ml leupeptin, 1 μg/ml aprotinin). Following 30 minutes incubation at 4° C., insoluble material was removed by centrifugation at 12,000 rpm for 5 minutes, and nuclear extracts were collected as supernatant. Extracts were either used immediately or frozen and stored at −80° C.
The concentration of extracted proteins was determined using the BioRad DC protein assay kit (BioRad; Hercules, Calif.). Samples (10 μg) were incubated in sodium dodecyl sulfate (SDS)-loading buffer (100 mM Tris-HCl, pH 6.8, 200 mM dithiothreitol (DTT), 4% SDS, 0.2% bromophenol blue, 20% glycerol) at 65° C. for 15 minutes, and separated on 10% (for nucleolin detection) or 8% (for PARP-1) polyacrylamide-SDS gels, followed by electroblotting to polyvinylidene difluoride membranes (PVDF, BioRad). After blocking non-specific binding sites for 1 hour in 5% nonfat dried milk in PBST (0.1% polyoxyethylene(20) sorbitan monolaurate (Tween® 20) in PBS), the membrane was incubated for 1 hour at room temperature or overnight at 4° C. with primary antibody (1:1000 anti-nucleolin or anti-PARP-1; Anti-nucleolin antibody (mouse monoclonal IgG1) and anti-PARP-1 antibody (mouse monoclonal IgG2A) were from Santa Cruz Biotechnology; Santa Cruz; Calif.). After 3 washes in PBST, the membrane was incubated with horseradish peroxidase-conjugated goat anti-mouse antibody (Santa Cruz Biotechnology) for 45 minutes at room temperature and then washed 3 times in PBST. Bound antibodies were detected using enhanced chemiluminescence detection. Equal gel loading and transfer of proteins were confirmed by staining membranes with India ink (Bates et al., 1999).
To determine if the phenomena observed in Example 2 were specific to UV-irradiated cells or a general feature of apoptosis, protein changes in U937 cells treated with 10 μM CPT (prepared as in Example 1) for 24 hours were also examined. The U937 cells were cultured as in Example 2. Apoptosis-induced changes in nucleolin and PARP-1 were examined as in Example 2.

U937 cells [5] = assay: DNA fragmentation (DNA ladder) assay of apoptosis; assay type: cell-based, Human; conditions: 10 μM CPT
Protocol: Camptothecin (CPT; Sigma Co.; St. Louis, Mo.), an anti-neoplastic topo-isomerase I (Top I) inhibitor, was dissolved in 0.5% (v/v) dimethyl sulfoxide (DMSO)/PBS as stock solutions (stored at −20° C.) and further diluted with water before use. Human U937 cells (myeloid leukemia cell line, from American Type Culture Collection (ATCC); Manassas, Va.) were grown in suspension in RPMI 1640 medium supplemented with 10% heat-inactivated (20 minutes at 65° C.) fetal bovine serum (FBS), 100 U/ml penicillin, 100 μg/ml streptomycin at 37° C. with 5% CO2. For treatment with CPT, exponentially growing U937 cells were treated with 10 μM CPT for 24 hours. For UV irradiation, cells were plated at 5×10^5 cells/ml in dishes (60 mm diameter). The cells were irradiated with UV-light by placing the plate (without a lid) directly in a Stratagene (La Jolla) UV Stratalinker and irradiating for 30 seconds at 254 nm. Some cells received 30 minutes pre-incubation with 1 mM 3-aminobenzamide (ABA); Sigma). Cells were then replaced in the incubator at 37° C. for various times. Apoptosis was observed using a DNA fragmentation assay (Facompre et al., 2001). In this assay, apoptosis is indicated by the appearance of a DNA “ladder”, which is produced by endonuclease cleavage of chromosomal DNA into nucleosomal fragments.

nucleolin in U937 cells = assay: Immunofluorescence staining of nucleolin in cells; assay type: cell-based, Human
Protocol: Cells were collected by centrifugation, washed twice with PBS, and placed on glass slides using a cytospinner. Samples were fixed in 4% paraformaldehyde in PBS for 15 minutes at room temperature and then permeabilized with 0.2% Triton X-100 in PBS for 10 minutes. After two washes with PBS, nonspecific antibody binding sites were blocked by 1 hour incubation at room temperature with 5% normal goat serum in PBS. After 3 washes with PBS, slides were incubated in primary antibody (1:100 anti-mAb IgG1; Santa Cruz Biotechnology) for 1 hour at room temperature then washed 3 times in PBS. Samples were incubated with Alexa-488-labeled secondary antibodies (diluted 1:500 in blocking buffer) for 1 hour at room temperature. Slides were washed 3 times in PBS, were observed using an Olympus BX60F fluorescence microscope and photographed using an Olympus DPIO camera.
Untreated, UV-irradiated, and 10 μM CPT-treated U937 cells were examined using the above staining method. Culture and treatment conditions were as in Example 2. […] Moreover, there was a dramatic redistribution of nucleolin in the apoptotic nuclei. In untreated cells, nucleolin was predominantly located in the intensely stained nucleoli (FIG. 1, panels A and D), whereas 24 hours after UV irradiation, nucleolin was distributed throughout the nucleolplasm in a speckled pattern (FIG. 1, panels B and E). […]

[6] = target: plasma membrane nucleolin (Homo sapiens, UniProt P19338); set-up: key: 1: Indicates a good plasma membrane nucleolin-binding GRO.; 2: Indicates a nucleolin control (non-plasma membrane nucleolin binding); conditions: superscript on GRO name in Table 2; cited from earlier work
[7] = U937 cells, 10 μM CPT for 24 hours

Chain of plasma membrane nucleolin (P19338 whole entry): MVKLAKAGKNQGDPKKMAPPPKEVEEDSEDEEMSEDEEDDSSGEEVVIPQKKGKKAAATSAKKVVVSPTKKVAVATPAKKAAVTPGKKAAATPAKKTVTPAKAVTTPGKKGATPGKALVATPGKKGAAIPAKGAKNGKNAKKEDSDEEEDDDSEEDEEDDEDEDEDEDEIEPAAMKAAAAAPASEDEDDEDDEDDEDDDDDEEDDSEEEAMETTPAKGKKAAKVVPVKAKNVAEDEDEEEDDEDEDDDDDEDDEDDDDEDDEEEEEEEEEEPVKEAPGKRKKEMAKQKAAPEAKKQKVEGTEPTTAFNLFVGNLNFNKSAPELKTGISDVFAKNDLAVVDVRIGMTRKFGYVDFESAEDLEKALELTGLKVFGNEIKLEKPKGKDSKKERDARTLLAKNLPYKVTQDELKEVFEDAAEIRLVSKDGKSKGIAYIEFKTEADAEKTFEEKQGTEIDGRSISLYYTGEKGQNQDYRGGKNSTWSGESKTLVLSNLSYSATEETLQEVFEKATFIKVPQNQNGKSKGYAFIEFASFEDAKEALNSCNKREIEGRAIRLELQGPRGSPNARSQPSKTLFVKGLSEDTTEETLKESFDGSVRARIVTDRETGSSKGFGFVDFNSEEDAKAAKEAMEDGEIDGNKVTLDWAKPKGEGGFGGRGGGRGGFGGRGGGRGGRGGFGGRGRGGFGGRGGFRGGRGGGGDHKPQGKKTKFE

| Molecule | plasma membrane nucleolin binding designation [6] | further results |
| --- | --- | --- |
| NC(=O)c1cccc(N)c1 [3-ABA, 3-aminobenzamide] | – | nucleolin in medium of untreated (non-irradiated) cells ([1]; U937 cells without UV irradiation, with 3-ABA treatment): almost no nucleolin was detected; appearance of full-length nucleolin band in medium after UV irradiation ([1]; UV-irradiated U937 cells, serum-free medium, with 3-ABA): inhibited; reduction of UV-induced cell death (U937 cells [2]): only to a small degree; PARP-1 cleavage [3]: abrogation of PARP-1 cleavage; disappearance of S-100 nucleolin [3]: drastically inhibited the disappearance of S-100 nucleolin; loss of nuclear nucleolin [3]: prevented the loss of nuclear nucleolin; protection from apoptosis-induced changes in nucleolin and PARP-1 ([4]; CPT-treated U937 cells, pre-incubation with 3-ABA): only a small degree of protection |
| CC[C@@]1(O)C(=O)OCc2c1cc1n(c2=O)Cc2cc3ccccc3nc2-1 [CPT, Camptothecin] | – | induction of apoptosis (DNA ladder) (U937 cells [5]): induced apoptosis; time at which DNA ladder clearly observed (U937 cells [5]): 24 h; nuclear nucleolin [4, 7]: reduced the amount of nuclear nucleolin; nucleolin in S-100 fraction [4, 7]: caused a disappearance of nucleolin from the S-100 fraction; PARP-1 cleavage ([4]; U937 cells, 10 μM CPT, after 4 hours): only partial cleavage; distribution of nucleolin in nuclei (nucleolin in U937 cells; U937 cells treated with CPT for 24 hours): the majority of nuclei exhibited a distinct pattern of staining; overall intensity of nuclear nucleolin staining (nucleolin in U937 cells; U937 cells, 10 μM CPT): decreased slightly |
| CRO: SEQ ID NO:18 tttcctcctc ctccttctcc tcctcctcc; nucleolin control (DNA TTTCCTCCTCCTCCTTCTCCTCCTCCTCC; listed as DNA, chemistry not given here) | CRO^2 | – |
| GRO15B: SEQ ID NO:8 ttgggggggg tgggt (TTGGGGGGGGTGGGT; listed as DNA, chemistry not given here) | GRO15B^2 | – |
| GRO26B: SEQ ID NO:10 ggtggtggtg gttgtggtgg tggtgg | GRO26B^1 | – |
| GRO G: SEQ ID NO:25 ggttggtgtg gttgg | GRO G^1 | – |
| GRO H: SEQ ID NO:26 ggggttttgg gg (DNA GGGGTTTTGGGG; listed as DNA, chemistry not given here) | GRO H^1 | – |
| GRO I: SEQ ID NO:27 gggttttggg (DNA GGGTTTTGGG; listed as DNA, chemistry not given here) | GRO I^1 | – |
| GRO J: SEQ ID NO:28 ggggttttgg ggttttgggg ttttgggg (DNA GGGGTTTTGGGGTTTTGGGGTTTTGGGG; listed as DNA, chemistry not given here) | GRO J^1 | – |
| GRO K: SEQ ID NO:29 ttggggttgg ggttggggtt gggg (DNA TTGGGGTTGGGGTTGGGGTTGGGG; listed as DNA, chemistry not given here) | GRO K^1 | – |
| GRO M: SEQ ID NO:31 ggttttggtt ttggttttgg ttttgg (DNA GGTTTTGGTTTTGGTTTTGGTTTTGG; listed as DNA, chemistry not given here) | GRO M^1 | – |
| GRO N: SEQ ID NO:32 tttcctcctc ctccttctcc tcctcctcc; nucleolin control (DNA TTTCCTCCTCCTCCTTCTCCTCCTCCTCC; listed as DNA, chemistry not given here) | GRO N^2 | – |
| GRO O: SEQ ID NO:33 cctcctcctc cttctcctcc tcctcc; nucleolin control (DNA CCTCCTCCTCCTTCTCCTCCTCCTCC; listed as DNA, chemistry not given here) | GRO O^2 | – |
| GRO P: SEQ ID NO:34 tggggt; nucleolin control | GRO P^2 | – |
| GRO Q: SEQ ID NO:35 gcatgct; nucleolin control (DNA GCATGCT; listed as DNA, chemistry not given here) | GRO Q^2 | – |
| GRO R: SEQ ID NO:36 gcggtttgcg g; nucleolin control (DNA GCGGTTTGCGG; listed as DNA, chemistry not given here) | GRO R^2 | – |
| GRO S: SEQ ID NO:37 tagg; nucleolin control (DNA TAGG; listed as DNA, chemistry not given here) | GRO S^2 | – |
